The values below come from ChEMBL document CHEMBL5113389, “Topoisomerase I inhibitors: Challenges, progress and the road ahead” (Eur J Med Chem, 2022).

For assay [1], the target named is T1, DNA topoisomerase 1 (Homo sapiens) (UniProt P11387).
T1 sequence (whole entry): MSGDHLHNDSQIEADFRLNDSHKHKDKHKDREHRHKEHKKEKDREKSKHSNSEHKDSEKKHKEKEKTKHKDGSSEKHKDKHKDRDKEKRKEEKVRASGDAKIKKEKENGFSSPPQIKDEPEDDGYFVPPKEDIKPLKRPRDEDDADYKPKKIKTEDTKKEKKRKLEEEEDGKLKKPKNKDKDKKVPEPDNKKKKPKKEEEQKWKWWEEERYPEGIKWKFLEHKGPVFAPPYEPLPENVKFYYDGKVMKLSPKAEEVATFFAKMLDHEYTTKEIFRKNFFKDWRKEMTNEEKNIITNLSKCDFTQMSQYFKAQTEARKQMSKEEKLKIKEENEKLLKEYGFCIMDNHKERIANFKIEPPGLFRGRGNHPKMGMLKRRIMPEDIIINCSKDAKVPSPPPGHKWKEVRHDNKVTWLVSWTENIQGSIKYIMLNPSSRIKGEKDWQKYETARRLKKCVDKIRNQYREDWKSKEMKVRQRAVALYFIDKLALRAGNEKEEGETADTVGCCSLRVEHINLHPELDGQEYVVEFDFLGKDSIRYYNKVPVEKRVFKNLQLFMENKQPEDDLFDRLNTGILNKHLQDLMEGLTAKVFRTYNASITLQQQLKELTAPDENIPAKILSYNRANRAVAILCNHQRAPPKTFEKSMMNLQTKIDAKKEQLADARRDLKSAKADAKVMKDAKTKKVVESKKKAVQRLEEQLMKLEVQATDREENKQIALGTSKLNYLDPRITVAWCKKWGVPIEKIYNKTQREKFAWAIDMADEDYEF
As to the kind of experiment: Inhibition of full-length recombinant human Top1 expressed in baculovirus infected Sf9 insect cells at 5 uM incubated for 30 mins relative to control.

Assay [2] has as its system RPMI 8402. The experiment in a line: Cytotoxicity against human RPMI 8402 cells assessed as cell growth inhibition measured after 4 days by MTT assay. Type of assay: functional, cell-based. Particulars: RPMI 8402, 96 h. For orientation: Formazan colour is commonly taken as a measure of viable cells.
Assay [3] addresses T1, DNA topoisomerase 1 (Homo sapiens). The experiment in a line: Inhibition of human Top1 expressed in Escherichia coli assessed as enzyme-mediated DNA cleavage by measuring relative effective concentration incubated for 30 mins relative to topotecan.
Assay [4] deals with P388. As to the kind of experiment: Cytotoxicity against mouse P388 cells assessed as cell growth inhibition. Type of assay: functional, cell-based.
Assay [5] relates to CCRF-CEM. The experiment in a line: Cytotoxicity against human CEM cells assessed as cell growth inhibition. Type of assay: functional, cell-based.
Assay [6] has as its system K5. As to the kind of experiment: Cytotoxicity against human camptothecin-resistant K5 cells assessed as cell growth inhibition measured after 4 days by MTT assay. The class given is functional, cell-based. The conditions noted are these: K5, 96 h.
The nature of assay [7]: Cytotoxicity against human U-937/CR cells assessed as cell growth inhibition incubated for 3 to 4 days by MTT assay. The class given is functional, cell-based.
Assay [8] relates to U-937. The experiment in a line: Cytotoxicity against human U-937 cells assessed as cell growth inhibition incubated for 3 to 4 days by MTT assay. Type of assay: functional, cell-based.
The test system of assay [9] is P388. As to the kind of experiment: Cytotoxicity against mouse P388 cells assessed as cell growth inhibition incubated for 3 to 4 days by MTT assay. The class given is functional, cell-based.
Assay [10] relates to P388CPT45. As to the kind of experiment: Cytotoxicity against mouse P388CPT45 cells assessed as cell growth inhibition incubated for 3 to 4 days by MTT assay. The class given is functional, cell-based.
The test system of assay [11] is HCT-116. The experiment in a line: Cytotoxicity against human HCT-116 cells assessed as cell growth inhibition measured after 4 days by MTT assay. The class given is functional, cell-based. The conditions noted are these: HCT-116, 96 h.
The subject of assay [12] is HCT-116. As to the kind of experiment: Cytotoxicity against human HCT-116 cells assessed as cell growth inhibition incubated for 72 hrs by MTT assay. The class given is functional, cell-based. Particulars: HCT-116, 72 h.
Assay [13] deals with K562. The experiment in a line: Cytotoxicity against human K562 cells assessed as cell growth inhibition incubated for 72 hrs by MTT assay. Type of assay: functional, cell-based. Particulars: K562, 72 h.
The target in assay [14] is T1, DNA topoisomerase 1 (Homo sapiens). The experiment in a line: Inhibition of Top1 in [3H]-Thymidine-labeled human MCF7 cells assessed as Top1-DNA complex formation at 30 uM incubated for 60 mins followed by addition of salmon sperm DNA and subsequent addition of KCl relative to control. Type of assay: cell-based.
Assay [15] deals with HCT-116. As to the kind of experiment: Cytotoxicity against human HCT-116 cells assessed as cell growth inhibition incubated for 3 days by SRB assay. Type of assay: functional, cell-based. The conditions noted are these: HCT-116, 72 h. In general terms: In SRB staining, fixed cells bind dye roughly in proportion to their protein.
For assay [16], the system named is MCF7. As to the kind of experiment: Cytotoxicity against human MCF7 cells assessed as cell growth inhibition incubated for 3 days by SRB assay. Type of assay: functional, cell-based. Particulars: MCF7, 72 h.

Each structure is given as a SMILES string. pIC50: −log10 of the molar value.

`O=c1c2ccccc2nc2n1Cc1cc3c(Br)cccc3nc1-2`: the inhibition in assay [1] came to 54%.

As to `O=c1c2ccccc2nc2n1Cc1cc3c(Cl)cccc3nc1-2`, the inhibition in [1] was determined as 48%. Consider `CN(C)CCn1c(=O)c2cc([N+](=O)[O-])ccc2c2cnc3cc4c(cc3c21)OCO4`, for which the pIC50 in assay [2] is 8.70. The Ratio in [3] was 0.1. In the case of `COc1cc(-c2c3c4cc(OC)c(O)cc4oc(=O)c3n3ccc4cc(O)c(OC)cc4c23)ccc1O` [LAMELLARIN D], the pIC50 in assay [4] was 6.87; in assay [5] it was 7.85.

With `COc1cc2ncc3c4cc5c(cc4ccc3c2cc1OC)OCO5`, the figures for the pIC50 in [2] and in assay [6] were 5.35 and 4.97, respectively. Consider `COc1cc2ccc3c4cc5c(cc4ncc3c2cc1OC)OCO5`, for which the pIC50 in assay [7] is 7.30; in assay [8] it was 7.40; in assay [9], 6.72; in [10], 6.74. For the compound `COc1ccc2c(ccc3c4cc5c(cc4nnc23)OCO5)c1`, the results for the pIC50 in assay [2] and in [11] were 7.15 and 7.40, respectively.

Regarding `O=c1c2ccccc2nc2n1Cc1c-2nc2ccccc2c1C(F)(F)F`, the pIC50 was 4.77 in [12] and 4.68 in assay [13]. Turning to `COc1cc2c(=O)n(CCN(C)C)c3c4ccc([N+](=O)[O-])cc4ncc3c2cc1OC`, the pIC50 in assay [2] was 7.12.

With `CN(C)CCn1c(=O)c2ccc([N+](=O)[O-])cc2c2cnc3cc4c(cc3c21)OCO4`, in assay [2], the negative logarithm of the IC50 (pIC50) is 8.52. As to `COc1cc2c(=O)n(CCN(C)C)c3c4ccc(N)cc4ncc3c2cc1OC`, the pIC50 in assay [2] is 7.00. In the case of `CN1c2ccccc2C(=O)N2CCc3c([nH]c4ccccc34)C21` (stereo not given), the inhibition in assay [14] was 24.2%. In the case of `CC[C@@]1(O)C(=O)Cc2c1cc1n(c2=O)Cc2c-1nc1cc3c(cc1c2C1CCC1)OCO3`, the figures for the pIC50 in assay [15] and in [16] were 8.22 and 8.52, respectively. Turning to `COc1cc2c(=O)n(CCN(C)C)c3c4cc([N+](=O)[O-])ccc4ncc3c2cc1OC`, the pIC50 in [2] is 7.74. Consider `O=c1c2ccccc2nc2n1Cc1cc3ccccc3nc1-2`, for which the inhibition in assay [1] amounted to 18%. With `COc1cc2c(=O)n(CCN(C)C)c3c4cc(N)ccc4ncc3c2cc1OC`, in assay [2], the pIC50 is 7.40.

What is called inhibition is how much of the control response was suppressed. For orientation: pIC50 means −log10 of the IC50, conventionally taken in molar units.
